Reference: patent US12110288B2, “MASP-2 inhibitors and methods of use” (Omeros Corporation, priority 2019, dated 2024)
Where a name gives a salt, the structure may show the parent alone.

Target: T1, MASP-2 (CCP1-CCP2-SP) (Homo sapiens, UniProt O00187)
T1 construct: 15 μL of Enzyme MASP-2 (CCP1-CCP2-SP) in Assay Buffer
Test: Enzymatic Assay for MASP-2
Assay type: biochemical
Conditions: fluorogenic substrate based on C2 cleavage site, room temperature, 20 mM HEPES pH 7.4
Summary of the method: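 Fluorogenic substrate modelled on the C2 cleavage site, run at room temperature in 20 mM HEPES pH 7.4, 140 mM NaCl, 0.1% Tween 20; compounds were added from DMSO serial dilutions before enzyme and substrate. Reactions ran 20 min and were stopped with 0.1 M acetic acid before fluorescence was read. % activity was normalised to DMSO-only and no-enzyme controls; IC50 was taken as Ki, with tight- or slow-binding inhibitors handled separately.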

T1 sequence (O00187 445-686 limits assumed): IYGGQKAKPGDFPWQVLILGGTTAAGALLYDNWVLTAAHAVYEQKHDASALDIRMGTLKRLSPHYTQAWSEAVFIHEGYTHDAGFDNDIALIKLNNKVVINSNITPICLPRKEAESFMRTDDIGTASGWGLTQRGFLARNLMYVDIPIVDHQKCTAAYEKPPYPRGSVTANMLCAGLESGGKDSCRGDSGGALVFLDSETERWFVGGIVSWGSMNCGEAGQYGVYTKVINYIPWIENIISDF
T1 sequence (O00187 298-444 partner limits assumed): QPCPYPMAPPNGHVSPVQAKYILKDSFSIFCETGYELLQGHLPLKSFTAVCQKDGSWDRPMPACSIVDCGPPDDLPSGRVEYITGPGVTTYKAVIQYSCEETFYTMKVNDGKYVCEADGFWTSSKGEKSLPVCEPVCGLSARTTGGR

Compound | Ki [nM]
COc1cccc(C2(CNc3ncc(-c4ccccc4)n(CC(=O)NCc4cc5cnccc5[nH]4)c3=O)CC2)c1 [Compound 68, N-((1H-Pyrrolo[3,2-c]pyridin-2-yl)methyl)-2-(3-(((1-(3-methoxyphenyl)cyclopropyl)methyl)amino)-2-oxo-6-phenylpyrazin-1(2H)-yl)acetamide trifluoroacetate] | < 500
Cc1nc(N)ccc1CNC(=O)Cn1c(-c2cccc(C(N)=O)c2)cnc(NCCc2ccccc2)c1=O [Compound 30, 3-(1-(2-(((6-Amino-2-methylpyridin-3-yl)methyl)amino)-2-oxoethyl)-6-oxo-5-(phenethylamino)-1,6-dihydropyrazin-2-yl)benzamide hydrochloride] | < 500
CSc1ncc(NCCc2ccccc2)c(=O)n1CC(=O)NCc1ccc2nc(N)[nH]c2c1 [Compound 5, N-((2-Amino-1H-Benzo[d]Imidazol-6-yl)Methyl)-2-(2-(Methylthio)-6-Oxo-5-(Phenethylamino)Pyrimidin-1(6H)-yl)Acetamide] | < 500
Nc1nc2ccc(CNC(=O)Cn3c(-c4ccccc4)ncc(NCCc4ccccc4)c3=O)cc2[nH]1 [Compound 4, N-((2-Amino-1H-Benzo[d]Imidazol-6-yl)Methyl)-2-(6-Oxo-5-(Phenethylamino)-2-Phenylpyrimidin-1(6H)-yl)Acetamide, Trifluoroacetate] | < 500
O=C(Cn1c(-c2ccccc2)cnc(NCCc2ccccc2)c1=O)NCc1cc2cnccc2[nH]1 [Compound 20, N-((1H-Pyrrolo[3,2-c]pyridin-2-yl)methyl)-2-(2-oxo-3-(phenethylamino)-6-phenylpyrazin-1(2H)-yl)acetamide trifluoroacetate] | < 500
O=C(Cn1c(-c2ccccc2)cnc(NCC2(c3ccccc3F)COC2)c1=O)NCc1cc2cnccc2[nH]1 [Compound 62, N-((1H-Pyrrolo[3,2-c]pyridin-2-yl)methyl)-2-(3-(((3-(2-fluorophenyl)oxetan-3-yl)methyl)amino)-2-oxo-6-phenylpyrazin-1(2H)-yl)acetamide trifluoroacetate] | < 500
Cc1nc(N)ccc1CNC(=O)Cn1c(C)ncc(NS(=O)(=O)Cc2ccccc2)c1=O [Compound 1, N-((6-Amino-2-Methylpyridin-3-yl)Methyl)-2-(2-Methyl-6-Oxo-5-((Phenylmethyl)Sulfonamido)Pyrimidin-1(6H)-yl)Acetamide, Trifluoro Acetate] | > 10000
O=C(Cn1c(-c2ccccc2)cnc(NCc2ccccc2)c1=O)NCc1cc2cnccc2[nH]1 [Compound 58, N-((1H-Pyrrolo[3,2-c]Pyridin-2-yl)Methyl)-2-(3-(Benzylamino)-2-Oxo-6-Phenylpyrazin-1(2H)-yl)Acetamide Trifluoroacetate] | < 500
Cc1nc(N)ccc1CNC(=O)Cn1c(Cc2ccccc2)cnc(NCCc2ccccc2)c1=O [Compound 19, N-((6-amino-2-methylpyridin-3-yl)methyl)-2-(6-benzyl-2-oxo-3-(phenethylamino)pyrazin-1(2H)-yl)acetamide trifluoroacetate] | < 500
Nc1nc2ccc(CNC(=O)Cn3c(Br)cnc(NCCc4ccccc4)c3=O)cc2[nH]1 [Compound 8, N-((2-Amino-1H-Benzo[d]Imidazol-6-yl)Methyl)-2-(6-Bromo-2-Oxo-3-(Phenethylamino)Pyrazin-1(2H)-yl)Acetamide] | < 500
Cc1nc(N)ccc1CNC(=O)Cn1c(=O)c(NCCc2ccccc2)cn(C)c1=O [Compound 34, N-((6-Amino-2-Methylpyridin-3-yl)Methyl)-2-(3-Methyl-2,6-Dioxo-5-(Phenethylamino)-3,6-Dihydropyrimidin-1(2H)-yl)Acetamide] | < 500
O=C(Cn1c(-c2ccccc2)cnc(NCC2(c3ccc(F)cc3)COC2)c1=O)NCc1cc2cnccc2[nH]1 [Compound 55, N-((1H-Pyrrolo[3,2-c]pyridin-2-yl)methyl)-2-(3-(((3-(4-fluorophenyl)oxetan-3-yl)methyl)amino)-2-oxo-6-phenylpyrazin-1(2H)-yl)acetamide trifluoroacetate] | < 500
Cc1nc(N)ccc1CNC(=O)Cn1c(-c2ccccc2)c(Cl)nc(N(C)C)c1=O [Compound 39, N-((6-Amino-2-methylpyridin-3-yl)methyl)-2-(5-chloro-3-(dimethylamino)-2-oxo-6-phenylpyrazin-1(2H)-yl)acetamide] | 2500 to 10000
Cc1nc(N)ccc1CNC(=O)Cn1c(-c2ccc(CO)cc2)cnc(NCCc2ccccc2)c1=O [Compound 33] | < 500
Cc1nc(N)ccc1CNC(=O)Cn1c(-c2ccccc2)cnc(N2CCCC2)c1=O [Compound 43, N-((6-Amino-2-Methylpyridin-3-yl)Methyl)-2-(2-Oxo-6-Phenyl-3-(Pyrrolidin-1-yl)Pyrazin-1(2H)-yl)Acetamide] | < 500

The next lines start with the values.

Ki [nM] | Compound
< 500 | COc1ccccc1CCNc1ncc(-c2ccccc2)n(CC(=O)NCc2cc3cnccc3[nH]2)c1=O [Compound 141, N-((1H-Pyrrolo[3,2-c]pyridin-2-yl)methyl)-2-(3-((2-methoxyphenethyl)amino)-2-oxo-6-phenylpyrazin-1(2H)-yl)acetamide]
< 500 | Cn1nccc1-c1cnc(NCCc2ccccc2)c(=O)n1CC(=O)NCc1cc2cnccc2[nH]1 [Compound 105, N-((1H-Pyrrolo[3,2-c]pyridin-2-yl)methyl)-2-(6-(1-methyl-1H-pyrazol-5-yl)-2-oxo-3-(phenethylamino)pyrazin-1(2H)-yl)acetamide]
< 500 | O=C(Cn1c(-c2ccccc2)cnc(NCCc2ccccc2)c1=O)NCc1cc2c(s1)CNCC2 [Compound 83, 2-(2-Oxo-3-(Phenethylamino)-6-Phenylpyrazin-1(2H)-yl)-N-((4,5,6,7-Tetrahydrothieno[2,3-c]Pyridin-2-yl)Methyl)Acetamide]
< 500 | O=C(Cn1c(-c2cnn(C(F)F)c2)cnc(NCCc2ccccc2)c1=O)NCc1cc2cnccc2[nH]1 [Compound 113, N-((1H-Pyrrolo[3,2-c]pyridin-2-yl)methyl)-2-(6-(1-(difluoromethyl)-1H-pyrazol-4-yl)-2-oxo-3-(phenethylamino)pyrazin-1(2H)-yl)acetamide]
< 500 | O=C(Cn1c(-c2ccccc2)cnc(NCCc2ccccc2F)c1=O)NCc1cc2cnccc2[nH]1 [Compound 144, N-((1H-Pyrrolo[3,2-c]pyridin-2-yl)methyl)-2-(3-((2-fluorophenethyl)amino)-2-oxo-6-phenylpyrazin-1(2H)-yl)acetamide]
< 500 | CC(C)n1cc(-c2cnc(NCCc3ccccc3)c(=O)n2CC(=O)NCc2cc3cnccc3[nH]2)cn1 [Compound 103, N-((1H-Pyrrolo[3,2-c]pyridin-2-yl)methyl)-2-(6-(1-isopropyl-1H-pyrazol-4-yl)-2-oxo-3-(phenethylamino)pyrazin-1(2H)-yl)acetamide]
< 500 | COCCCCNc1ncc(-c2ccccc2)n(CC(=O)NCc2cc3cnccc3[nH]2)c1=O [Compound 124, N-((1H-Pyrrolo[3,2-c]pyridin-2-yl)methyl)-2-(3-((4-methoxybutyl)amino)-2-oxo-6-phenylpyrazin-1(2H)-yl)acetamide trifluoroacetate]
< 500 | COc1cccc(CNc2ncc(-c3ccccc3)n(CC(=O)NCc3cc4cnccc4[nH]3)c2=O)c1 [Compound 153, N-((1H-Pyrrolo[3,2-c]pyridin-2-yl)methyl)-2-(3-((3-methoxybenzyl)amino)-2-oxo-6-phenylpyrazin-1(2H)-yl)acetamide]
< 500 | O=C(Cn1c(-c2ccccc2)cnc(NCC2(c3cccc(Cl)c3)CC2)c1=O)NCc1cc2cnccc2[nH]1 [Compound 71, N-((1H-Pyrrolo[3,2-c]pyridin-2-yl)methyl)-2-(3-(((1-(3-chlorophenyl)cyclopropyl)methyl)amino)-2-oxo-6-phenylpyrazin-1(2H)-yl)acetamide trifluoroacetate]
< 500 | O=C(Cn1c(-c2ccccc2)cnc(N2CCC(c3ccccc3)CC2)c1=O)NCc1cc2cnccc2[nH]1 [Compound 140, N-((1H-Pyrrolo[3,2-c]pyridin-2-yl)methyl)-2-(2-oxo-6-phenyl-3-(4-phenylpiperidin-l-yl)pyrazin-1(2H)-yl)acetamide]
